Laboratory results taken from patent US20140221656A1, “CRYSTALLINE SOLVATES OF 6-(PIPERIDIN-4-YLOXY)-2H-ISOQUINOLIN-1-ONE HYDROCHLORIDE” (SANOFI, priority 2011, published 2014).
Entries after “also recorded” stand apart in the source; their conditions may differ. Counter-ions that a name gives are not always drawn.

Assays:
Assay type in all cases: physicochemical
[1] = Thermogravimetric analysis (TGA)
Method: On heating the dihydrate in a dry environment, a significant weight loss starts already at slightly elevated temperature and ends at about 110° C.
In this temperature range, transformation to phase 3 was observed as determined by XRPD.
The thermogravimetric analyses were performed with a METTLER TGA851e (module TGA/SDTA851e/SF1100/042). 100 μl Al crucibles sealed with lid were used. The sample changer punches a pinhole into the lid immediately before the start of the measurement. The oven cell is purged with a nitrogen gas flow of about 50 mL/min. The measurements typically start with a hold time of about 25 min at 25° C., followed by heating of the sample with a rate of 10°/min. Temperature and weight loss were checked by a calcium oxalate hydrate reference sample.

[2] = Dynamic vapor sorption (DVS) water vapor sorption and desorption isotherms; conditions: DVS 25° C.; for hygroscopicity / water content as a function of relative humidity: FIG. 13 and 14
Method: Moreover, the dihydrate may also be characterized by its DVS (dynamic vapor sorption) water vapor sorption and desorption isotherms measured at 25° C. as shown in FIG. 3. Before starting the sorption cycle the dihydrate probe is treated with dry nitrogen gas resulting in a transformation into phase 2 as shown by humidity resolved XRPD. […] In the sorption cycle the water content of the probe quickly increases when phase 2 is exposed to relative humidities between 1 and 20% and remains almost constant between 20 and 95%. In the desorption cycle the water content remains almost constant when the dihydrate is exposed to relative humidities between 95% and 20%. A weight loss starts below 20% relative humidity and becomes strong below 10%, especially below 5%. The change in mass at low relative humidity is completely reversible and when the humidity increases again, the rehydration proceeds rapidly with small samples. However, for bulk samples rehydration of over-dried samples can take considerably longer and rehydration may require several days. Almost identical water sorption and desorption isotherms are observed at 40° C.
With decreasing humidity the dihydrate converts back at low humidity (below about 10% r.h.) into phase 2 (cycle 1, desorption). Phase 2 then converts into the dihydrate with increasing humidity and along the same isotherm it converts back with decreasing humidity into polymorph 2 (cycle 2, see also FIG. 3)
Moisture sorption/desorption isotherms were recorded on a DVS-1 from Surface Measurement Systems. […] Typical total measurement times for both cycles are about 20-30 hours.

[3] = Maturation experiments (slurry conversion), relative stability of polymorphs and hydrate; conditions: for relative thermodynamic stability among the phases: suspensions of phase mixtures in dry organic solvents, 0 to 40° C., hydrochloride
Method: By maturation experiments (slurry conversion) at the given temperature the relative stability of the polymorphs of compound (I) and the hydrate was investigated.
The following maturation experiment was performed by stirring the suspension under the specified conditions, starting from the dihydrate. The sample was investigated by XRPD in suspension, after vacuum filtration as well as after drying over night at 40° C. in vacuum (<50 mbar). The isolated material was also investigated by DSC and TGA.
(a) Maturation of 0.210 g dihydrate of compound (I) in 0.4 mL of water at 20° C. for 35 days. Similar, maturation of the dihydrate was done in water/methanol (vol/vol 1:1) and in water/ethanol (vol/vol 1:1).
The following maturation experiments were performed by stirring the suspension under the specified conditions and isolating the solid by vacuum filtration, starting from dihydrate of compound (I). The sample was investigated by XRPD in suspension, after vacuum filtration as well as after drying. The isolated material was also investigated by DSC and TGA.
(b) Maturation of 0.203 g of dihydrate of compound (I) in 1.2 mL of methanol at 20° C. for 35 days.
(c) Maturation was also done as in (b) by using ethanol, 1-propanol or 2-propanol.
(d) Maturation of […] of dihydrate of compound (I) in 2.0 mL of 2-butanol at 20° C. for 35 days.
The following maturation experiments of suspensions of phase mixtures of the dihydrate of compound (I) and phases consisting of polymorphs 1, 3 and 4 were performed at 0, 20 and 40° C. The product was isolated by vacuum filtration and analyzed after drying.
(e) Maturation of a mixture of 0.3 mg phase 1, 23.9 mg phase 3, 29.9 mg phase 4 and 27.9 mg of the dihydrate in 0.7 mL 2-propanol at 0° C. for 2 weeks.
(f) Maturation of a mixture of 0.3 mg phase 1, 27.2 mg phase 3, 18.1 mg phase 4 and 29.6 mg of the dihydrate in 2.0 mL 2-butanol at 0° C. for 2 weeks.
(g) Similar experiments as in e) and f) were done with corresponding mixtures of phase 1, phase 3, phase 4 and the dihydrate in 2-propanol and 2-butanol at 20° C. and at 40° C., respectively.

[4] = Drying of the dihydrate, retention of crystal structure; conditions: dried dihydrate
Description: In a further embodiment of the hydrate the water content is 11.4% (w/w). in a further embodiment the hydrate contains 2.0 molecules water per molecule (I). Although the hydrate phase typically contains about 10-12.5% water it can also occur with lower water content. The crystal structure of the hydrate remains even if the dihydrate is dried and the remaining water content is down to about 3%. Water uptake is reversible if humidity in the environment is raised again. The water content in the isolated product depends on the drying conditions used during work up of the hydrate after crystallisation.

[5] = Humidity-controlled XRPD in a humidity chamber; conditions: for time until transformation into the dihydrate at 95% relative humidity: held at 95% r.h., hydrochloride
Method: When humidity-controlled XRPD was performed at 25 and 40° C., widely identical results were obtained.
Exposure to elevated humidity causes transformation to the dihydrate as determined with humidity-controlled XRPD performed at 25° C. […] Phase 1 transformed into the dihydrate after about 15 min at 95%, which in turn changed to phase 2 after about 40 min at 2% r.h.
Exposure to elevated humidity causes transformation to the dihydrate as determined by humidity-controlled XRPD at 25° C. […] As a result phase 3 transformed into the hydrate after about 30 min at 95%, which in turn changed to phase 2 after about 30 min at 2% r.h.
Exposure to elevated humidity causes transformation to the dihydrate as determined by humidity-controlled XRPD. […] As a result phase 4 transformed into the dihydrate after about 15 min at 95%, which in turn changed to phase 2 after about 20 min at 2% r.h.
(§1) All X-ray powder diffraction was performed with Stoe Stadi-P transmission diffractometers using CuKα1 radiation (Lambda is 1.54060 Angström). For room temperature powder diffraction, linear position sensitive detectors were used; while for temperature-resolved XRPD image plate position sensitive detectors (IP-PSDs) were used. Unless stated otherwise, X-ray powder diffraction was performed at room temperature. Dry samples were investigated in a flat preparation whereas suspensions were investigated in quartz glass capillaries. The measured data were evaluated and plotted with the Software WinXPOW V2.12.

[6] = Storage under usual storage conditions (25° C./65% relative humidity)
Method: Moreover, the corresponding amorphous material is hygroscopic and the water content varies much stronger with the relative humidity compared to the dihydrate. This water uptake and variability in water content makes precise dosing during drug product manufacturing difficult. In contrast, the dihydrate has been proven to be stable for more than two years under usual storage conditions (no detectable decomposition at 25° C./65% relative humidity). Accordingly, the crystalline dihydrate is therefore the preferred solid form for drug product manufacturing.

[7] = Temperature-resolved XRPD
Method: Based on these findings the dihydrate is stable below 90° C. and thus also at room temperature. Therefore, in comparison to the other described anhydrous polymorphs, the dihydrate is particularly suitable when a high stability is desired. It is the only one that can be stored at relative humidities between 20 and 95% in different environments below 90° C., which are usual storage conditions, without the risk of transformation into another described crystalline phase. Even if exposed to a very dry environment, a possible water loss is reversible and the missing water is gained back once the compound is back in an environment having usual humidity conditions. Therefore, the dihydrate is in particular suitable for the preparation of medicaments and pharmaceutical compositions with improved stability.
as §1, with “Dry samples were investigated in a flat preparation whereas suspensions were investigated in quartz glass capillaries.” left out

[8] = Stability of the solvate outside the mother liquor; conditions: in the presence of humidity starts to transform to the hydrate
Description: Thus, a further aspect of the present invention relates to the use of the methyl acetate solvate of compound (I) for the production of the hydrate, for example by subjecting it to conditions, such as an elevated temperature and/or humidity which facilitate the loss of methyl acetate and attracting water.

[9] = Storage at 20° C. and 75% relative humidity
Method: Also storage of phase 1 at 20° C. and 75% relative humidity caused complete conversion to the dihydrate within 3 weeks. The rate of conversion correlates with the relative humidity.
(§2) Also storage of phase 3 at 20° C. and 75% relative humidity caused complete conversion to the dihydrate within 3 weeks. The rate of conversion correlates with the relative humidity. When suspended in water, complete transformation into the dihydrate was observed almost immediately (<10 min).
Also storage of phase 4 at 20° C. and 75% relative humidity caused complete conversion to the dihydrate within 3 weeks. The rate of conversion apparently correlates with the relative humidity.

[10] = Suspension in water, transformation into the dihydrate
Method: as §2

O=c1[nH]ccc2cc(OC3CCNCC3)ccc12 [1,4-dioxane solvate, 6-(Piperidin-4-yloxy)-2H-isoquinolin-1-one hydrochloride×0.5 1,4-dioxane solvate]
stability of the solvate (in words) ([1]; from TGA / temperature-resolved XRPD): relatively stable
TGA weight loss ([1]; mainly in a temperature range from 80 to 120° C.): 16.6%

O=c1[nH]ccc2cc(OC3CCNCC3)ccc12 [amorphous material, 6-(Piperidin-4-yloxy)-2H-isoquinolin-1-one hydrochloride]
hygroscopicity / water content as a function of relative humidity ([2]; hydrochloride): hygroscopic

O=c1[nH]ccc2cc(OC3CCNCC3)ccc12 [dihydrate, 6-(Piperidin-4-yloxy)-2H-isoquinolin-1-one hydrochloride dihydrate]
solid phase after maturation in 2-butanol ([3]; 2-butanol, 20° C., 35 days, after drying): Polymorph 4 was obtained
solid phase after maturation in alcohols ([3]; methanol, ethanol, 1-propanol or 2-propanol, 20° C., 35 days): polymorph 3 was obtained
solid phase after maturation in aqueous media ([3]; water, water/methanol 1:1, water/ethanol 1:1, 20° C., 35 days): remained as dihydrate
hygroscopicity / water content as a function of relative humidity ([2]; hydrochloride dihydrate): maintains a quite constant water content
relative humidity below which the dihydrate converts into phase 2 ([2]; cycle 1, desorption): below 10 % r.h.
relative humidity below which weight loss starts ([2]; desorption cycle): below 20%
TGA weight loss (water) on heating ([1]; heating in a dry environment, ends at about 110° C.): 10.8 mass-%
remaining water content down to which the hydrate crystal structure remains on drying [4]: about 3%
relative humidity at which the hydrate reversibly transforms into phase 2 ([5]; humidity chamber XRPD, r.h. cycled between 2% and 95%): 2 % r.h.
time until the dihydrate changed to phase 2 at 2% r.h. ([5]; humidity-controlled XRPD, held at 2% r.h., hydrochloride dihydrate): about 30 min
time proven stable under usual storage conditions (no detectable decomposition) [6]: more than two
temperature below which the form is stable ([7]; based on temperature-resolved XRPD findings): below 90 °C
temperature at which transformation to phase 3 starts ([7]; heating, accompanied by loss of water): about 90 °C

O=c1[nH]ccc2cc(OC3CCNCC3)ccc12 [methyl acetate solvate, 6-(Piperidin-4-yloxy)-2H-isoquinolin-1-one hydrochloride]
stability outside the mother liquor (in words) [8]: only moderately stable

O=c1[nH]ccc2cc(OC3CCNCC3)ccc12 [phase 1, 6-(Piperidin-4-yloxy)-2H-isoquinolin-1-one hydrochloride]
time to complete conversion to the dihydrate on storage [9]: ≤ 3 weeks
relative thermodynamic stability among the phases [3]: only a metastable polymorph
time until transformation into the dihydrate at 95% relative humidity ([5]; humidity-controlled XRPD): about 15 min

O=c1[nH]ccc2cc(OC3CCNCC3)ccc12 [phase 3, 6-(Piperidin-4-yloxy)-2H-isoquinolin-1-one hydrochloride]
time to complete conversion to the dihydrate on storage [9]: ≤ 3 weeks
relative thermodynamic stability among the phases [3]: thermodynamically most stable anhydrous form; also recorded: most stable anhydrous phase
relative humidity above which phase changes into the dihydrate ([2]; cycle 1, sorption): above 80%
time to complete transformation into the dihydrate when suspended in water [10]: < 10 min
time until transformation into the dihydrate at 95% relative humidity ([5]; humidity-controlled XRPD): about 30 min

O=c1[nH]ccc2cc(OC3CCNCC3)ccc12 [phase 4, 6-(Piperidin-4-yloxy)-2H-isoquinolin-1-one hydrochloride]
time to complete conversion to the dihydrate on storage [9]: ≤ 3 weeks
relative thermodynamic stability among the phases [3]: only a metastable one
time until transformation into the dihydrate at 95% relative humidity ([5]; humidity-controlled XRPD): about 15 min
